Experimental data: US9642835B2, “Modulators of GTPase and use in relevant treatment” (STC.UNM, priority 2010, dated 2017)

Experiments:
Cdc42 in Swiss 3T3 cells = experiment: EGF induced Cdc42 membrane localization; format: cell-based; details: 1 μM
Procedure: Subconfluent cells were starved overnight in DMEM without serum and incubated with 1 or 10 μM inhibitor for 1 h. As a positive control, cells were stimulated with 100 ng/ml bradykinin for 30 min, or 100 ng/ml EGF as previously described {Kozma, 1995 #24}. Cells were washed with phosphate buffered saline, fixed with 3% paraformaldehyde, permeabilized for 5 min with 0.1% Triton X-100 in Tyrode's buffer, blocked for 1 h with 1% BSA in Tyrode's buffer, and stained for 1 h with rhodamine-phalloidin or Cdc42 mAb (Cytoskeleton Inc., Denver, Colo.) for 1 h followed by Cy3-conjugated goat-anti-mouse antibody (Jackson Immunoresearch Laboratories) for 1 h, at RT.

Cdc42 WT = target: T1, Cdc42 WT (Homo sapiens, UniProt P60953); experiment: Bead-based flow cytometry dose response, BODIPY-FL-GTP binding; details: in the presence of Mg ions; read-out: EC50 for Cdc42 wt
T1 construct: purchased Cytoskeleton
T1 sequence (P60953 whole entry): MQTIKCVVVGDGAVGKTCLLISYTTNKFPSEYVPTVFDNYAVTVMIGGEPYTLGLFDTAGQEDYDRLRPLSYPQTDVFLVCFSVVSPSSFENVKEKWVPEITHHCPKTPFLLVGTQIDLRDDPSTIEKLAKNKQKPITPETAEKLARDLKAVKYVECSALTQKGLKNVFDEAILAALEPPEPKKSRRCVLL
Procedure: Bead sets for multiplex assays were custom synthesized by Duke Scientific Corp (Fremont, Calif.), but may now be ordered from Thermo/Fisher. […] Negative controls, contained the bead mixture with fluorescent GTP, 0.5 mM unlabeled GTP as a competitor, and 1% DMSO. […] The resulting time-dependent data (one file per plate) were analyzed using IDLQuery software to determine the compound activity in each well. Gating based on forward scatter (FS) and side scatter (SS) parameters was used to identify singlet bead populations. Gating based on FL8 emission distinguishes the beads coated with different proteins, and the median fluorescence per bead population was calculated. […] Baselines were set to 100% based on measurements from the 1% DMSO containing positive controls as further described in PubChem. {PubChem #72}
Briefly, compounds were serially diluted 1:3 a total of eight times from a starting concentration of 10 mM giving a 9-point dilution series in DMSO. The final concentrations of inhibitors in the assay ranged from 10 nM to 100 μM. Dose-response analyses were examined in the presence of NP-HPS buffer containing: a) 1 mM EDTA; or b) 1 mM MgCl2. […] For assays with EDTA we used one multiplex (Rab7 wt, Rab2 wt, H-Ras wt, H-RasG12V, Cdc42 wt, and Cdc42Q61L) and 3 single-plexes (for Rac1 wt, Rac1 Q61L and GST-GFP).
GTPase activators were identified on the basis of an increase in fluorescent GTP-binding.
(§1) In experiments including magnesium, six GST-GTPases were assayed simultaneously in a single multiplex (Rac1 wt, Rac1Q61L, RhoA wt, RhoAL63, Cdc42 wt and Cdc42Q61L) and 1 nM BODIPY-FL-GTP binding was measured in the presence or absence of the serial drug dilution series. Each dose response series was run in duplicate.

[1] = test system: Cdc42, Rab2, Rab7, activated Rac1Q61L, Rac1, and H-Ras; experiment: Multiplexed primary screen, fluorescent GTP binding; details: 10 μM compound
Procedure: Multiplex screening was performed by measuring GTP-binding activities of six GTPases (Cdc42, Rab2, Rab7, activated Rac1Q61L, Rac1, and H-Ras) simultaneously using special glutathione (GSH) bead sets having varied fluorescence intensities at a fixed wavelength^38. Individual GST-GTPase chimeras were tested against approximately 200,000 small molecules from the Molecular Libraries Small Molecule Repository (MLSMR). Results of fluorescent GTP-binding from the entire primary screen are summarized in the open access Pubchem database as required for projects conducted under the Roadmap Initiative (AID 757-761, 764). […] In total 1877 compounds/194,635 were identified as activators or inhibitors in the primary screen. On the order of 100-500 compounds were found active per GTPase target, enabling an unprecedented, comprehensive evaluation of small molecules active against various Ras-related GTPase family members. Here we report one compound active specifically on Cdc42 and structure activity relationships determined through chemical synthesis.
Multiplex analysis of small GTPases, were performed as we have described previously {Surviladze, 2009}. […] Flow cytometric light scatter and fluorescence emission at 530+/−20 nm (FL1) and 665+/−10 nm (FL8) were collected on a Cyan ADP flow cytometer (Beckman Coulter, Fullerton, Calif.). The resulting time-dependent data (one file per plate) were analyzed using IDLQuery software to determine the compound activity in each well. […] Gating based on FL8 emission distinguishes the beads coated with different proteins, and the median fluorescence per bead population was calculated. […]
For detection of GTP binding to small G-proteins we used bead-based multiplex flow cytometry assay {Surviladze, 2009}. […] Six individual GST-GTPases representative of Rho, Ras and Rab branches of the Ras-related GTPase family (Cdc42 wt, Rac1 wt, Rac1Q61L, Rab2 wt, Rab7 wt, and H-Ras wt) were first bound to GSH-beads of a particular fluorescence intensity. […]

[2] = test system: other Rho family GTPases (Rac1, RhoA); experiment: Multiplex dose response with Mg, BODIPY-FL-GTP binding; details: in the presence of Mg ions
Procedure: as §1

COc1ccc(C2CC(c3ccccc3)=NN2c2ccc(S(N)(=O)=O)cc2)cc1 (stereo not shown) [MLS000693334, 4-[3-(4-methoxyphenyl)-5-phenyl-3,4-dihydropyrazol-2-yl]benzenesulfonamide]
EGF induced localization of Cdc42 on the membrane (Cdc42 in Swiss 3T3 cells): reduced membrane localization | EC50 (Cdc42 WT): ~4 µM | Outcome of primary screening [1]: specific inhibitors | Effect on activity of other Rho family GTPases [2]: did not affect activity
